Each block holds one molecule with its values, some of them ahead of it. Calls of active or inactive are those of the source. No cut-off for these calls is given here. Peptide text beside a SMILES is read from it.
How the values were obtained:
[1] = test system: SMMC-7721; assay: Antiproliferative activity against human SMMC7721 cells after 24 hrs by MTT assay; assay type: functional, cell-based; details: SMMC-7721, 24 h
[2] = test system: HepG2; assay: Antiproliferative activity against human HepG2 cells after 24 hrs by MTT assay; assay type: functional, cell-based; details: HepG2, 24 h
[3] = test system: SMMC-7721; assay: Cell cycle arrest in human SMMC7721 cells assessed as G2/M phase accumulation at 2.5 uM after 24 hrs by propidium iodide staining based flow cytometry relative to control; assay type: functional
[4] = test system: SMMC-7721; assay: Induction of apoptosis in human SMMC7721 cells assessed as chromatin condensation at 0.2 uM after 24 hrs by DAPI staining based laser confocal microscopy; assay type: functional, cell-based
[5] = test system: SMMC-7721; assay: Induction of apoptosis in human SMMC7721 cells assessed as early apoptotic cells at 0.2 uM after 24 hrs by Annexin V-FITC/propidium iodide staining based flow cytometry (reference value: 2%); assay type: functional
[6] = test system: SMMC-7721; assay: Induction of apoptosis in human SMMC7721 cells assessed as late apoptotic cells at 0.2 uM after 24 hrs by Annexin V-FITC/propidium iodide staining based flow cytometry (reference value: 0.7%); assay type: functional
[7] = test system: SMMC-7721; assay: In vivo induction of apoptosis in human SMMC7721 cells xenografted in Balb/c nude mouse assessed as activation of caspase-3 dosed intraperitoneally for 32 days by IHC analysis; assay type: functional, organism-based
[8] = test system: SMMC-7721; assay: Induction of apoptosis in human SMMC7721 cells assessed as late apoptotic cells at 10 uM after 24 hrs by Annexin V-FITC/propidium iodide staining based flow cytometry (reference value: 0.7%); assay type: functional
[9] = test system: SMMC-7721; assay: Induction of apoptosis in human SMMC7721 cells assessed as late apoptotic cells at 20 uM after 24 hrs by Annexin V-FITC/propidium iodide staining based flow cytometry (reference value: 0.7%); assay type: functional
[10] = test system: SMMC-7721; assay: Antitumor activity against human SMMC7721 cells xenografted in Balb/c nude mouse assessed as tumor growth inhibition at 16 mg/kg, ip for 32 days relative to control; assay type: functional; details: SMMC-7721, ip, 768 h, read-out: TGI
[11] = test system: SMMC-7721; assay: In vivo induction of apoptosis in human SMMC7721 cells xenografted in Balb/c nude mouse at 8 to 40 mg/kg, ip for 32 days by TUNEL assay; assay type: functional, organism-based
[12] = test system: SMMC-7721; assay: Induction of apoptosis in human SMMC7721 cells assessed as early apoptotic cells at 10 uM after 24 hrs by Annexin V-FITC/propidium iodide staining based flow cytometry (reference value: 2%); assay type: functional
[13] = test system: SMMC-7721; assay: Cell cycle arrest in human SMMC7721 cells assessed as G2/M phase accumulation at 10 uM after 24 hrs by propidium iodide staining based flow cytometry relative to control; assay type: functional
[14] = test system: SMMC-7721; assay: Induction of apoptosis in human SMMC7721 cells assessed as increase in cleaved caspase-9 protein expression after 24 hrs by Western blot method; assay type: functional, cell-based
[15] = test system: SMMC-7721; assay: Induction of apoptosis in human SMMC7721 cells assessed as increase in cleaved caspase-8 protein expression after 24 hrs by Western blot method; assay type: functional, cell-based
[16] = test system: Mus musculus; assay: Toxicity in Balb/c nude mouse xenografted with human SMMC7721 cells assessed as body weight level at 16 mg/kg, ip for 32 days (reference value: 25.4 +/- 1.8 g); assay type: organism-based; details: in vivo, 768 h
[17] = test system: SMMC-7721; assay: Induction of morphological changes in tumor of human SMMC7721 cells xenografted Balb/c nude mouse induction of nuclei and cytoplasm non-uniform distribution at 40 mg/kg, ip for 32 days by hematoxylin/eosin staining based microscopic analysis; assay type: functional, organism-based
[18] = test system: Mus musculus; assay: Toxicity in Balb/c nude mouse xenografted with human SMMC7721 cells assessed as body weight level at 8 mg/kg, ip for 32 days (reference value: 25.4 +/- 1.8 g); assay type: organism-based; details: in vivo, 768 h
[19] = test system: SMMC-7721; assay: Induction of apoptosis in human SMMC7721 cells assessed as increase in cleaved PARP protein expression after 24 hrs by Western blot method; assay type: functional, cell-based
[20] = test system: SMMC-7721; assay: Induction of apoptosis in human SMMC7721 cells assessed as early apoptotic cells at 20 uM after 24 hrs by Annexin V-FITC/propidium iodide staining based flow cytometry (reference value: 2%); assay type: functional
[21] = test system: SMMC-7721; assay: Induction of morphological changes in tumor of human SMMC7721 cells xenografted Balb/c nude mouse assessed as reduction in number of nuclei at 40 mg/kg, ip for 32 days by hematoxylin/eosin staining based microscopic analysis; assay type: functional, organism-based
[22] = test system: SMMC-7721; assay: Antitumor activity against human SMMC7721 cells xenografted in Balb/c nude mouse assessed as tumor growth inhibition at 40 mg/kg, ip for 32 days relative to control; assay type: functional; details: SMMC-7721, ip, 768 h, read-out: TGI
[23] = test system: SMMC-7721; assay: Induction of morphological changes in tumor of human SMMC7721 cells xenografted Balb/c nude mouse assessed as appearance of shrunken nuclei at 40 mg/kg, ip for 32 days by hematoxylin/eosin staining based microscopic analysis; assay type: functional, organism-based
[24] = test system: SMMC-7721; assay: Induction of apoptosis in human SMMC7721 cells assessed as chromatin condensation at 10 to 30 uM after 24 hrs by DAPI staining based laser confocal microscopy; assay type: functional, cell-based
[25] = test system: SMMC-7721; assay: Induction of apoptosis in human SMMC7721 cells assessed as increase in cleaved caspase-3 protein expression after 24 hrs by Western blot method; assay type: functional, cell-based
[26] = test system: SMMC-7721; assay: Induction of apoptosis in human SMMC7721 cells assessed as early apoptotic cells at 30 uM after 24 hrs by Annexin V-FITC/propidium iodide staining based flow cytometry (reference value: 2%); assay type: functional
[27] = test system: SMMC-7721; assay: Cell cycle arrest in human SMMC7721 cells assessed as G2/M phase accumulation at 20 uM after 24 hrs by propidium iodide staining based flow cytometry relative to control; assay type: functional
[28] = test system: SMMC-7721; assay: Cell cycle arrest in human SMMC7721 cells assessed as G2/M phase accumulation at 30 uM after 24 hrs by propidium iodide staining based flow cytometry relative to control; assay type: functional
[29] = test system: SMMC-7721; assay: Antitumor activity against human SMMC7721 cells xenografted in Balb/c nude mouse assessed as tumor growth inhibition dosed intraperitoneally for 32 days; assay type: functional, organism-based
[30] = test system: SMMC-7721; assay: Induction of apoptosis in human SMMC7721 cells assessed as late apoptotic cells at 30 uM after 24 hrs by Annexin V-FITC/propidium iodide staining based flow cytometry (reference value: 0.7%); assay type: functional
[31] = test system: SMMC-7721; assay: Antitumor activity against human SMMC7721 cells xenografted in Balb/c nude mouse assessed as tumor growth inhibition at 8 mg/kg, ip for 32 days relative to control; assay type: functional; details: SMMC-7721, ip, 768 h, read-out: TGI
[32] = test system: Mus musculus; assay: Toxicity in Balb/c nude mouse xenografted with human SMMC7721 cells assessed as body weight level at 40 mg/kg, ip for 32 days (reference value: 25.4 +/- 1.8 g); assay type: organism-based; details: in vivo, 768 h

SMILES: CC[C@H](C)[C@@H]1NC(=O)[C@@H]2CCCN2C(=O)[C@H](CC(C)C)NC(=O)[C@H](C(C)C)NC(=O)[C@H](CC(C)C)NC(=O)[C@H](C(C)C)NC(=O)[C@H](CC(C)C)NC1=O (cyclo(ILVLVLP))
IC50 [1]: > 100 µM
IC50 [2]: > 100 µM

SMILES: COc1cc([C@@H]2c3cc4c(cc3[C@@H](O[C@@H]3O[C@@H]5CO[C@@H](C)O[C@H]5[C@H](O)[C@H]3O)[C@H]3COC(=O)[C@H]23)OCO4)cc(OC)c1O [ETOPOSIDE]
Activity [3]: 44.9%

SMILES: CC[C@H](C)[C@@H]1NC(=O)[C@@H]2CCCN2C(=O)[C@H](C)NC(=O)[C@H](C(C)C)NC(=O)[C@H](CC(C)C)NC(=O)[C@H](C(C)C)NC(=O)[C@H](CC(C)C)NC(=O)[C@H](CC(C)C)NC(=O)[C@H](CC(C)C)NC1=O (cyclo(APILLLVLV))
IC50 [1]: 48.5 µM
IC50 [2]: 39.4 µM

SMILES: CC[C@H](C)[C@@H]1NC(=O)[C@@H]2CCCN2C(=O)[C@H](CC(C)C)NC(=O)[C@H](C(C)C)NC(=O)[C@H](CC(C)C)NC(=O)[C@H](C)NC(=O)[C@H](CC(C)C)NC(=O)[C@H](CC(C)C)NC(=O)[C@H](CC(C)C)NC1=O (cyclo(ALVLPILLL))
IC50 [1]: 47.4 µM
IC50 [2]: 40.5 µM

SMILES: CC[C@H](C)[C@@H]1NC(=O)[C@@H]2CCCN2C(=O)[C@H](C(C)C)NC(=O)[C@H](CC(C)C)NC(=O)[C@H](C(C)C)NC1=O (cyclo(IVLVP))
IC50 [1]: > 100 µM
IC50 [2]: > 100 µM

SMILES: CC(=O)O[C@H]1C(=O)[C@@]2(C)[C@H]([C@H](OC(=O)c3ccccc3)[C@]3(O)C[C@H](OC(=O)[C@H](O)[C@@H](NC(=O)c4ccccc4)c4ccccc4)C(C)=C1C3(C)C)[C@]1(OC(C)=O)CO[C@@H]1C[C@@H]2O [PACLITAXEL]
Activity [4]: Active
Activity [5]: 54.7 - 56.7%
Activity [6]: 3.4%

SMILES: CC[C@H](C)[C@@H]1NC(=O)[C@@H]2CCCN2C(=O)[C@H](CC(C)C)NC(=O)[C@H](C(C)C)NC(=O)[C@H](CC(C)C)NC(=O)[C@H](C(C)C)NC(=O)[C@H](C)NC(=O)[C@H](CC(C)C)NC(=O)[C@H](CC(C)C)NC1=O (cyclo(AVLVLPILL))
IC50 [1]: 56.1 µM
IC50 [2]: 31.8 µM

SMILES: CC[C@H](C)[C@@H]1NC(=O)[C@@H]2CCCN2C(=O)[C@H](CC(C)C)NC(=O)[C@H](C(C)C)NC(=O)[C@H](CC(C)C)NC(=O)[C@H](C(C)C)NC(=O)[C@H](CC(C)C)NC(=O)[C@H](CC(C)C)NC1=O (cyclo(ILLVLVLP))
IC50 [1]: 73.9 µM
IC50 [2]: 51.7 µM

Further lines, with some results ahead:

IC50 [1]: 36.1 µM
IC50 [2]: 55.6 µM
SMILES: CC(C)C[C@@H]1NC(=O)[C@H](C)NC(=O)[C@@H]2CCCN2C(=O)[C@H](CC(C)C)NC(=O)[C@H](C(C)C)NC(=O)[C@H](CC(C)C)NC(=O)[C@H](C(C)C)NC(=O)[C@H](CC(C)C)NC(=O)[C@H](CC(C)C)NC1=O (cyclo(ALLLVLVLP))

IC50 [1]: 29.8 µM
IC50 [2]: > 100 µM
SMILES: CC[C@H](C)[C@@H]1NC(=O)[C@@H]2CCCN2C(=O)[C@H](CC(C)C)NC(=O)[C@H](C(C)C)NC(=O)[C@H](CC(C)C)NC(=O)[C@H](C(C)C)NC(=O)[C@H](CC(C)C)NC(=O)[C@H](CC(C)C)NC(=O)[C@H](C)NC1=O (cyclo(ALLVLVLPI))

IC50 [1]: 42.8 µM
IC50 [2]: > 100 µM
SMILES: CC[C@H](C)[C@@H]1NC(=O)[C@@H]2CCCN2C(=O)[C@H](CC(C)C)NC(=O)[C@H](C(C)C)NC(=O)[C@H](CC(C)C)NC(=O)[C@H](C(C)C)NC(=O)[C@H](CC(C)C)NC(=O)[C@H](C)NC(=O)[C@H](CC(C)C)NC1=O (cyclo(ALVLVLPIL))

IC50 [1]: 29.9 µM
IC50 [2]: 29.9 µM
SMILES: CC[C@H](C)[C@@H]1NC(=O)[C@@H]2CCCN2C(=O)[C@H](CC(C)C)NC(=O)[C@H](C)NC(=O)[C@H](CC(C)C)NC(=O)[C@H](C(C)C)NC(=O)[C@H](CC(C)C)NC(=O)[C@H](CC(C)C)NC(=O)[C@H](CC(C)C)NC1=O (cyclo(ALPILLLVL))

IC50 [1]: 6.38 µM
IC50 [2]: 12.2 µM
SMILES: CC[C@H](C)[C@@H]1NC(=O)[C@@H]2CCCN2C(=O)[C@H](CC(C)C)NC(=O)[C@H](C(C)C)NC(=O)[C@H](CC(C)C)NC(=O)[C@H](C(C)C)NC(=O)[C@H](CC(C)C)NC(=O)[C@H](CC(C)C)NC(=O)[C@H](CC(C)C)NC1=O (cyclo(ILLLVLVLP))
Activity [7]: Dose-dependent effect
Activity [8]: 0.4%
Activity [9]: 2.8%
inhibition in vivo at 16 mg/kg [10]: 57%
Activity [11]: Dose-dependent effect
Activity [12]: 1.6 - 3.6%
Activity [13]: 5.9%
Activity [14]: Dose-dependent effect
Activity [15]: Dose-dependent effect
Activity [16]: 22.7 g
Activity [17]: Active
Activity [18]: 22.2 g
Activity [19]: Dose-dependent effect
Activity [20]: 36.6 - 38.6%
Activity [21]: Active
inhibition in vivo at 40 mg/kg [22]: 67.9%
Activity [23]: Active
Activity [24]: Active
Activity [25]: Dose-dependent effect
Activity [26]: 84.5 - 86.5%
Activity [27]: 9.6%
Activity [28]: 12%
TGI [29]: Dose-dependent effect
Activity [30]: 2.6%
inhibition in vivo at 8 mg/kg [31]: 26.1%
Activity [32]: 21.1 g

IC50 [1]: 38.9 µM
IC50 [2]: 38.6 µM
SMILES: CC[C@H](C)[C@@H]1NC(=O)[C@@H]2CCCN2C(=O)[C@H](CC(C)C)NC(=O)[C@H](C(C)C)NC(=O)[C@H](C)NC(=O)[C@H](C(C)C)NC(=O)[C@H](CC(C)C)NC(=O)[C@H](CC(C)C)NC(=O)[C@H](CC(C)C)NC1=O (cyclo(AVLPILLLV))

Reference: ChEMBL document CHEMBL4219059, “Synthesis and biological evaluation of cyclopeptide GG-8-6 and its analogues as anti-hepatocellular carcinoma agents” (Bioorg Med Chem, 2018)
